Laboratory results reported in PubChem BioAssay (NCI).
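Grown in 96-well plates, cells were treated for 48 hours with each compound at five concentrations. Insufficient inhibition: endpoint recorded as highest concentration tested. At the GI50, growth is halved. TGI: concentration producing complete growth inhibition.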

Legend:
Test in all cases: NCI-60 cell line screen, 48 h
CCRF-CEM leukemia = test system: CCRF-CEM leukemia
CAKI-1 renal = test system: CAKI-1 renal
M14 melanoma = test system: M14 melanoma
UACC-257 melanoma = test system: UACC-257 melanoma
SNB-19 CNS = test system: SNB-19 CNS
SF-268 CNS = test system: SF-268 CNS
UACC-62 melanoma = test system: UACC-62 melanoma
OVCAR-8 ovarian = test system: OVCAR-8 ovarian
HCT-116 colon = test system: HCT-116 colon
COLO 205 colon = test system: COLO 205 colon
SNB-78 CNS = test system: SNB-78 CNS
U251 CNS = test system: U251 CNS
OVCAR-4 ovarian = test system: OVCAR-4 ovarian
DLD-1 colon = test system: DLD-1 colon
SK-OV-3 ovarian = test system: SK-OV-3 ovarian
HL-60(TB) leukemia = test system: HL-60(TB) leukemia
NCI-H226 lung = test system: NCI-H226 lung
A549 NSCLC = test system: A549 NSCLC
RXF 393 renal = test system: RXF 393 renal
HOP-92 NSCLC = test system: HOP-92 NSCLC
SR leukemia = test system: SR leukemia
DMS 273 small cell lung = test system: DMS 273 small cell lung
KM20L2 colon = test system: KM20L2 colon
HCC-2998 colon = test system: HCC-2998 colon
TK-10 renal = test system: TK-10 renal
NCI-H23 lung = test system: NCI-H23 lung
KM12 colon = test system: KM12 colon
786-0 renal = test system: 786-0 renal
RPMI-8226 leukemia = test system: RPMI-8226 leukemia
SK-MEL-2 melanoma = test system: SK-MEL-2 melanoma
LOX IMVI melanoma = test system: LOX IMVI melanoma
NCI-H460 lung = test system: NCI-H460 lung
OVCAR-5 ovarian = test system: OVCAR-5 ovarian
SK-MEL-28 melanoma = test system: SK-MEL-28 melanoma
OVCAR-3 ovarian = test system: OVCAR-3 ovarian
EKVX NSCLC = test system: EKVX NSCLC
MALME-3M melanoma = test system: MALME-3M melanoma
HT29 colon = test system: HT29 colon
ACHN renal = test system: ACHN renal
SF-295 CNS = test system: SF-295 CNS
UO-31 renal = test system: UO-31 renal
SW-620 colon = test system: SW-620 colon
MOLT-4 leukemia = test system: MOLT-4 leukemia
HCT-15 colon = test system: HCT-15 colon
K-562 leukemia = test system: K-562 leukemia
SN12C renal = test system: SN12C renal
SF-539 CNS = test system: SF-539 CNS
HOP-62 NSCLC = test system: HOP-62 NSCLC
IGROV1 ovarian = test system: IGROV1 ovarian
HOP-18 NSCLC = test system: HOP-18 NSCLC

CC/C(=C(/CC)c1ccc([O-])cc1)c1ccc([O-])cc1.CC/C(=C(\CC)c1ccc([O-])cc1)c1ccc([O-])cc1.O=C([CH-]C(=O)c1ccccc1)c1ccccc1.O=C([CH-]C(=O)c1ccccc1)c1ccccc1.O=C([CH-]C(=O)c1ccccc1)c1ccccc1.O=C([CH-]C(=O)c1ccccc1)c1ccccc1.[Ti+4].[Ti+4] showed a GI50 (CCRF-CEM leukemia) of 21 µM, a TGI (CCRF-CEM leukemia) of 93.8 µM and a GI50 (CAKI-1 renal) of 23.5 µM. For the same molecule, the TGI (CAKI-1 renal) was 58.5 µM, the GI50 (M14 melanoma) was 20.7 µM and the TGI (M14 melanoma) was 78.8 µM. The GI50 (UACC-257 melanoma) was 28 µM, the TGI (UACC-257 melanoma) was > 100 µM and the GI50 (SNB-19 CNS) was 22.6 µM. For the same molecule, the TGI (SNB-19 CNS) was 56.2 µM, the GI50 (SF-268 CNS) was 35.8 µM and the TGI (SF-268 CNS) was > 100 µM. It also gave a GI50 (UACC-62 melanoma) of 18.9 µM, a TGI (UACC-62 melanoma) of 52.4 µM and a GI50 (OVCAR-8 ovarian) of 20.7 µM. For the same molecule, the TGI (OVCAR-8 ovarian) was 50.1 µM, the GI50 (HCT-116 colon) was 28.8 µM and the TGI (HCT-116 colon) was > 100 µM. The GI50 (COLO 205 colon) was 37.9 µM, the TGI (COLO 205 colon) was > 100 µM and the GI50 (SNB-78 CNS) was 72.4 µM. For the same molecule, the TGI (SNB-78 CNS) was > 100 µM, the GI50 (U251 CNS) was 24.9 µM and the TGI (U251 CNS) was 82 µM. For the same molecule, the GI50 (OVCAR-4 ovarian) was 42.9 µM, the TGI (OVCAR-4 ovarian) was > 100 µM and the GI50 (DLD-1 colon) was 19.8 µM. For the same molecule, the TGI (DLD-1 colon) was 53.1 µM, the GI50 (SK-OV-3 ovarian) was 30.8 µM and the TGI (SK-OV-3 ovarian) was 74.4 µM. For the same molecule, the GI50 (HL-60(TB) leukemia) was > 100 µM, the TGI (HL-60(TB) leukemia) was > 100 µM and the GI50 (NCI-H226 lung) was 28.1 µM. It also gave a TGI (NCI-H226 lung) of 61.2 µM, a GI50 (A549 NSCLC) of 18.9 µM and a TGI (A549 NSCLC) of 47.9 µM. It also gave a GI50 (RXF 393 renal) of 14.7 µM, a TGI (RXF 393 renal) of 42.3 µM and a GI50 (HOP-92 NSCLC) of 19.5 µM. The TGI (HOP-92 NSCLC) was 50 µM, the GI50 (SR leukemia) was 58.5 µM and the TGI (SR leukemia) was > 100 µM. The GI50 (DMS 273 small cell lung) was 28.7 µM, the TGI (DMS 273 small cell lung) was > 100 µM and the GI50 (KM20L2 colon) was 29.5 µM. The TGI (KM20L2 colon) was 77.8 µM, the GI50 (HCC-2998 colon) was 45.7 µM and the TGI (HCC-2998 colon) was > 100 µM. The GI50 (TK-10 renal) was 45.2 µM, the TGI (TK-10 renal) was > 100 µM and the GI50 (NCI-H23 lung) was 25.9 µM. The TGI (NCI-H23 lung) was 97.3 µM, the GI50 (KM12 colon) was 26.3 µM and the TGI (KM12 colon) was > 100 µM. For the same molecule, the GI50 (786-0 renal) was 16.9 µM, the TGI (786-0 renal) was 32.4 µM and the GI50 (RPMI-8226 leukemia) was 71.4 µM. The TGI (RPMI-8226 leukemia) was > 100 µM, the GI50 (SK-MEL-2 melanoma) was 25.8 µM and the TGI (SK-MEL-2 melanoma) was 73.5 µM. The GI50 (LOX IMVI melanoma) was 43 µM, the TGI (LOX IMVI melanoma) was > 100 µM and the GI50 (NCI-H460 lung) was 25.2 µM. The TGI (NCI-H460 lung) was > 100 µM, the GI50 (OVCAR-5 ovarian) was 45.8 µM and the TGI (OVCAR-5 ovarian) was > 100 µM. The GI50 (SK-MEL-28 melanoma) was 39.5 µM, the TGI (SK-MEL-28 melanoma) was > 100 µM and the GI50 (OVCAR-3 ovarian) was 24.9 µM. For the same molecule, the TGI (OVCAR-3 ovarian) was > 100 µM, the GI50 (EKVX NSCLC) was 45.5 µM and the TGI (EKVX NSCLC) was > 100 µM. The GI50 (MALME-3M melanoma) was 30.9 µM, the TGI (MALME-3M melanoma) was > 100 µM and the GI50 (HT29 colon) was 29.8 µM. The TGI (HT29 colon) was > 100 µM, the GI50 (ACHN renal) was 35.2 µM and the TGI (ACHN renal) was > 100 µM. The GI50 (SF-295 CNS) was 19.9 µM, the TGI (SF-295 CNS) was 42.6 µM and the GI50 (UO-31 renal) was 35 µM. For the same molecule, the TGI (UO-31 renal) was 72.2 µM, the GI50 (SW-620 colon) was 21.4 µM and the TGI (SW-620 colon) was 51.6 µM. For the same molecule, the GI50 (MOLT-4 leukemia) was 27.7 µM, the TGI (MOLT-4 leukemia) was > 100 µM and the GI50 (HCT-15 colon) was 39.4 µM. For the same molecule, the TGI (HCT-15 colon) was > 100 µM, the GI50 (K-562 leukemia) was 23.9 µM and the TGI (K-562 leukemia) was > 100 µM. For the same molecule, the GI50 (SN12C renal) was 47.1 µM, the TGI (SN12C renal) was > 100 µM and the GI50 (SF-539 CNS) was 20 µM. It also gave a TGI (SF-539 CNS) of 40.8 µM, a GI50 (HOP-62 NSCLC) of 22.5 µM and a TGI (HOP-62 NSCLC) of 51.3 µM. The GI50 (IGROV1 ovarian) was 41.9 µM, the TGI (IGROV1 ovarian) was > 100 µM and the GI50 (HOP-18 NSCLC) was 83.4 µM. The TGI (HOP-18 NSCLC) was > 100 µM.
